Assay results reported in ChEMBL document CHEMBL5303573, “Mapping human microbiome drug metabolism by gut bacteria and their genes” (Nature, 2019).

Key:
[1] = The drug is tested on Bacteroides finegoldii strain: DSM17565 for biotransformation. The drug concentrations were measured before and after a 12-h incubation by liquid-chromatography-coupled mass spectrometry (LC–MS); settings: 2 µM
[2] = The drug is tested on Anaerococcus hydrogenalis strain: DSM7454 for biotransformation. The drug concentrations were measured before and after a 12-h incubation by liquid-chromatography-coupled mass spectrometry (LC–MS); settings: 2 µM
[3] = The drug is tested on Bacteroides coprophilus strain: DSM18228 for biotransformation. The drug concentrations were measured before and after a 12-h incubation by liquid-chromatography-coupled mass spectrometry (LC–MS); settings: 2 µM
[4] = The drug is tested on Bacteroides cellulosilyticus strain: DSM14838 for biotransformation. The drug concentrations were measured before and after a 12-h incubation by liquid-chromatography-coupled mass spectrometry (LC–MS); settings: 2 µM
[5] = The drug is tested on Enterobacter cancerogenus strain: ATCC35316 for biotransformation. The drug concentrations were measured before and after a 12-h incubation by liquid-chromatography-coupled mass spectrometry (LC–MS); settings: 2 µM
[6] = The drug is tested on Bacteroides vulgatus strain: ATCC8482 for biotransformation. The drug concentrations were measured before and after a 12-h incubation by liquid-chromatography-coupled mass spectrometry (LC–MS); settings: phocaeicola vulgatus, 2 µM
[7] = The drug is tested on Anaerotruncus colihominis strain: DSM17241 for biotransformation. The drug concentrations were measured before and after a 12-h incubation by liquid-chromatography-coupled mass spectrometry (LC–MS); settings: 2 µM
[8] = bacteroides stercoris, 12 h, 2 µM
Description: The drug is tested on Bacteroides stercoris strain: ATCC43183 for biotransformation. The drug concentrations were measured before and after a 12-h incubation by liquid-chromatography-coupled mass spectrometry (LC–MS)

[9] = The drug is tested on Eubacterium hallii strain: DSM3353 for biotransformation. The drug concentrations were measured before and after a 12-h incubation by liquid-chromatography-coupled mass spectrometry (LC–MS); settings: anaerobutyricum hallii, 2 µM
[10] = The drug is tested on Bifidobacterium breve strain: DSM20213 for biotransformation. The drug concentrations were measured before and after a 12-h incubation by liquid-chromatography-coupled mass spectrometry (LC–MS); settings: 2 µM
[11] = The drug is tested on Ruminococcus lactaris strain: ATCC29176 for biotransformation. The drug concentrations were measured before and after a 12-h incubation by liquid-chromatography-coupled mass spectrometry (LC–MS); settings: 2 µM
[12] = bacteroides thetaiotaomicron, 12 h, 2 µM
Description: The drug is tested on Bacteroides thetaiotaomicron strain: 3731 for biotransformation. The drug concentrations were measured before and after a 12-h incubation by liquid-chromatography-coupled mass spectrometry (LC–MS)

[13] = The drug is tested on Clostridium scindens strain: ATCC35704 for biotransformation. The drug concentrations were measured before and after a 12-h incubation by liquid-chromatography-coupled mass spectrometry (LC–MS); settings: 2 µM
[14] = The drug is tested on Ruminococcus gnavus strain: ATCC29149 for biotransformation. The drug concentrations were measured before and after a 12-h incubation by liquid-chromatography-coupled mass spectrometry (LC–MS); settings: mediterraneibacter gnavus, 2 µM
[15] = bacteroides fragilis, 12 h, 2 µM
Description: The drug is tested on Bacteroides fragilis strain: 3397 (T10) for biotransformation. The drug concentrations were measured before and after a 12-h incubation by liquid-chromatography-coupled mass spectrometry (LC–MS)

[16] = The drug is tested on Alistipes indistinctus strain: DSM22520 for biotransformation. The drug concentrations were measured before and after a 12-h incubation by liquid-chromatography-coupled mass spectrometry (LC–MS); settings: 2 µM
[17] = The drug is tested on Eubacterium ventriosum strain: ATCC27560 for biotransformation. The drug concentrations were measured before and after a 12-h incubation by liquid-chromatography-coupled mass spectrometry (LC–MS); assay type: ADME; set-up: dose 2 uM, timepoint 0 vs 12 hours; settings: 2 µM
[18] = bacteroides fragilis, 12 h, 2 µM; remark: listed apart in the source
Description: The drug is tested on Bacteroides fragilis strain: DS-208 for biotransformation. The drug concentrations were measured before and after a 12-h incubation by liquid-chromatography-coupled mass spectrometry (LC–MS)

[19] = parabacteroides johnsonii, 12 h, 2 µM
Description: The drug is tested on Parabacteroides johnsonii strain: DSM18315 for biotransformation. The drug concentrations were measured before and after a 12-h incubation by liquid-chromatography-coupled mass spectrometry (LC–MS)

[20] = parabacteroides distasonis, 12 h, 2 µM
Description: The drug is tested on Parabacteroides distasonis strain: ATCC8503 for biotransformation. The drug concentrations were measured before and after a 12-h incubation by liquid-chromatography-coupled mass spectrometry (LC–MS)

Structure (SMILES)	Bacterial Biotransformation [1]	Bacterial Biotransformation [2]	Bacterial Biotransformation [3]	Bacterial Biotransformation [4]	Bacterial Biotransformation [5]	Bacterial Biotransformation [6]	Bacterial Biotransformation [7]	Bacterial Biotransformation [8]	Bacterial Biotransformation [9]	Bacterial Biotransformation [10]	Bacterial Biotransformation [11]	Bacterial Biotransformation [12]	Bacterial Biotransformation [13]	Bacterial Biotransformation [14]	Bacterial Biotransformation [15]	Bacterial Biotransformation [16]	Bacterial Biotransformation [17]	Bacterial Biotransformation [18]	Bacterial Biotransformation [19]	Bacterial Biotransformation [20]
O=C1NCC2(CCN(CCc3ccccc3)CC2)O1 [FENSPIRIDE]	Compound NOT metabolized	Compound NOT metabolized	Compound metabolized	Compound NOT metabolized	Compound NOT metabolized	Compound NOT metabolized	Compound NOT metabolized	Compound metabolized	Compound NOT metabolized	Compound NOT metabolized	Compound NOT metabolized	Compound metabolized	Compound NOT metabolized	Compound NOT metabolized	Compound metabolized	Compound NOT metabolized	Compound NOT metabolized	Compound metabolized	Compound metabolized	
O=C(O)CCc1nc(-c2ccccc2)c(-c2ccccc2)o1 [OXAPROZIN]	Compound metabolized	Compound NOT metabolized	Compound NOT metabolized	Compound NOT metabolized	Compound NOT metabolized	Compound metabolized	Compound NOT metabolized	Compound NOT metabolized	Compound NOT metabolized	Compound NOT metabolized	Compound NOT metabolized	Compound metabolized	Compound NOT metabolized	Compound NOT metabolized		Compound NOT metabolized	Compound NOT metabolized	Compound metabolized	Compound metabolized	Compound metabolized
CCN(CC)CC#CCOC(=O)C(O)(c1ccccc1)C1CCCCC1.Cl (stereo not drawn) [OXYBUTYNIN CHLORIDE]		Compound NOT metabolized		Compound NOT metabolized	Compound NOT metabolized	Compound metabolized	Compound NOT metabolized	Compound NOT metabolized	Compound NOT metabolized	Compound NOT metabolized	Compound NOT metabolized	Compound NOT metabolized	Compound NOT metabolized	Compound NOT metabolized		Compound NOT metabolized	Compound metabolized	Compound NOT metabolized	Compound NOT metabolized	Compound NOT metabolized
Nc1nc(N)nc(-c2cc(Cl)ccc2Cl)n1.O=C(O)/C=C\C(=O)O [IRSOGLADINE MALEATE]	Compound NOT metabolized	Compound NOT metabolized	Compound NOT metabolized	Compound NOT metabolized	Compound NOT metabolized	Compound NOT metabolized	Compound NOT metabolized	Compound NOT metabolized	Compound NOT metabolized	Compound NOT metabolized	Compound NOT metabolized	Compound NOT metabolized	Compound NOT metabolized	Compound NOT metabolized	Compound NOT metabolized	Compound NOT metabolized	Compound NOT metabolized	Compound NOT metabolized	Compound metabolized	
Cc1ccc(NC(=O)c2ccc(CN3CCN(C)CC3)cc2)cc1Nc1nccc(-c2cccnc2)n1 [IMATINIB]	Compound NOT metabolized	Compound NOT metabolized	Compound NOT metabolized	Compound NOT metabolized	Compound NOT metabolized	Compound metabolized	Compound NOT metabolized	Compound NOT metabolized		Compound NOT metabolized	Compound NOT metabolized	Compound NOT metabolized		Compound NOT metabolized		Compound NOT metabolized	Compound NOT metabolized	Compound NOT metabolized	Compound NOT metabolized	Compound NOT metabolized
C#C[C@]1(O)CC[C@H]2[C@@H]3CCC4=CC(=O)CC[C@@H]4[C@H]3CC[C@@]21CC [LEVONORGESTREL]	Compound NOT metabolized	Compound NOT metabolized	Compound NOT metabolized	Compound metabolized	Compound NOT metabolized	Compound metabolized	Compound NOT metabolized	Compound metabolized	Compound NOT metabolized	Compound NOT metabolized		Compound metabolized	Compound NOT metabolized	Compound metabolized	Compound metabolized	Compound NOT metabolized	Compound NOT metabolized	Compound metabolized	Compound metabolized	Compound metabolized
CN1CCN(C(=O)O[C@H]2c3nccnc3C(=O)N2c2ccc(Cl)cn2)CC1 [ESZOPICLONE]		Compound NOT metabolized	Compound NOT metabolized	Compound metabolized	Compound NOT metabolized	Compound metabolized	Compound metabolized	Compound NOT metabolized	Compound metabolized	Compound NOT metabolized	Compound NOT metabolized	Compound NOT metabolized	Compound NOT metabolized	Compound NOT metabolized		Compound NOT metabolized	Compound NOT metabolized		Compound metabolized	Compound NOT metabolized
COC(=O)Nc1nc2ccc(C(=O)c3ccccc3)cc2[nH]1 [MEBENDAZOLE]		Compound NOT metabolized	Compound NOT metabolized	Compound NOT metabolized	Compound NOT metabolized	Compound metabolized	Compound NOT metabolized	Compound metabolized	Compound NOT metabolized	Compound NOT metabolized		Compound NOT metabolized	Compound NOT metabolized	Compound NOT metabolized		Compound NOT metabolized	Compound NOT metabolized	Compound metabolized	Compound NOT metabolized	Compound metabolized
Cc1ccnc2c1NC(=O)c1cccnc1N2C1CC1 [NEVIRAPINE]	Compound NOT metabolized	Compound NOT metabolized	Compound NOT metabolized	Compound NOT metabolized	Compound NOT metabolized	Compound NOT metabolized	Compound NOT metabolized	Compound NOT metabolized	Compound NOT metabolized	Compound NOT metabolized	Compound NOT metabolized	Compound NOT metabolized	Compound NOT metabolized	Compound NOT metabolized		Compound NOT metabolized	Compound NOT metabolized	Compound metabolized	Compound NOT metabolized	Compound NOT metabolized
